Like-named read-outs stand apart in the source and are kept apart here.
Legend:
[1] = target: T1, recombinant human GST-SYK (Homo sapiens, UniProt P43405); assay: Homogeneous Time-Resolved Fluorescence (HTRF) Assay for the Recombinant Human Syk Enzyme; format: biochemical; details: GST-hSYK 5 pM, ATP 25 μM, 10-dose titration
T1 construct: purchased Carna Biosciences 08-176
Protocol: Homogeneous Time-Resolved Fluorescence (HTRF) Assay for the Recombinant Human Syk Enzyme
A recombinant GST-hSYK fusion protein was used to measure potency of compounds to inhibit human Syk activity. […] Final volume of the reaction was 10 μL. Phosphorylation of the peptide was allowed to proceed for 45′ at room temperature. To quench the reaction and detect the phosphorylated product, 2 nM of a Europium-anti-phosphotyrosine antibody (Perkin Elmer #AD0161) and 70 nM SA-APC (Perkin-Elmer #CR130-100) were added together in 15 mM Tris pH 7.5, 40 mM EDTA, 0.01% tween 20. Final volume of the quenching solution was 10 μl. The resulting HTRF signal was measured after 30 minutes on an EnVision (Perkin-Elmer) reader using a time-resolved fluorescence protocol.

PGD2 = details: intranasal, phase I/II study, allergic rhinitis; cited from earlier work
[2] = phase II clinical trial, allergic rhinitis; cited from earlier work

IC50 ([1]; read-out: rhSYK Activity) [nM] | SMILES | other results
1.5 to 15 | CCOc1cccc(Nc2cc(N[C@@H]3CCCC[C@@H]3N)ccc2C(N)=O)n1 (relative stereo) [Example 1.6, rel-4-{[(1R,2S)-2-aminocyclohexyl]amino}-2-[(6-ethoxypyridin-2-yl)amino]benzamide] | –
< 1.5 | COc1cccc(-c2cccc(Nc3cc(N[C@@H]4CCCC[C@@H]4N)ccc3C(N)=O)n2)c1 (relative stereo) [Example 1.9, rel-4-{[(1R,2S)-2-aminocyclohexyl]amino}-2-{[6-(3-methoxyphenyl)pyridin-2-yl]amino}benzamide] | IC50 ([1]; read-out: IC50): 1.3 nM
1.5 to 15 | NC(=O)c1ccc(N[C@@H]2CCCC[C@@H]2N)cc1Nc1cccc(-c2ccc(F)cc2)n1 (relative stereo) [Example 1.14, rel-4-{[(1R,2S)-2-aminocyclohexyl]amino}-2-{[6-(4-fluorophenyl)pyridin-2-yl]amino}benzamide] | –
1.5 to 15 | NC(=O)c1ccc(N[C@@H]2CCCC[C@@H]2N)cc1Nc1cccc(-n2cccn2)n1 (relative stereo) [Example 1.3, rel-4-{[(1R,2S)-2-aminocyclohexyl]amino}-2-{[6-(1H-pyrazol-1-yl)pyridin-2-yl]amino}benzamide] | –
15 to 50 | Cc1nc(Nc2cc(N[C@@H]3CCCC[C@@H]3N)ccc2C(N)=O)ccc1F (relative stereo) [Example 1.4, rel-4-{[(1R,2S)-2-aminocyclohexyl]amino}-2-[(5-fluoro-6-methylpyridin-2-yl)amino]benzamide] | IC50 ([1]; read-out: IC50): 23 nM
– | Oc1cccc(Nc2ncc(F)c(Nc3cccc(O)c3)n2)c1 [Example R112] | change in PGD2 (PGD2): statistically significant decrease; clinical safety (PGD2): safe across a range of indicators; efficacy versus placebo [2]: lack of efficacy versus placebo
15 to 50 | Cc1cccc(Nc2cc(N[C@@H]3CCCC[C@@H]3N)ccc2C(N)=O)n1 (relative stereo) [Example 2, rel-4-{[(1R,2S)-2-aminocyclohexyl]amino}-2-[(6-methylpyridin-2-yl)amino]benzamide] | –
< 1.5 | COc1ccc(-c2cccc(Nc3cc(N[C@@H]4CCCC[C@@H]4N)ccc3C(N)=O)n2)cc1 (relative stereo) [Example 1.13, rel-4-{[(1R,2S)-2-aminocyclohexyl]amino}-2-{[6-(4-methoxyphenyl)pyridin-2-yl]amino}benzamide] | –
1.5 to 15 | NC(=O)c1ccc(N[C@@H]2CCCC[C@@H]2N)cc1Nc1ccc2ccccc2n1 (relative stereo) [Example 1.15, rel-4-{[(1R,2S)-2-aminocyclohexyl]amino}-2-(quinolin-2-ylamino)benzamide] | –
1.5 to 15 | COc1cccc(Nc2cc(N[C@@H]3CCCC[C@@H]3N)ccc2C(N)=O)n1 (relative stereo) [Example 1.2, rel-4-{[(1R,2S)-2-aminocyclohexyl]amino}-2-[(6-methoxypyridin-2-yl)amino]benzamide] | –
< 1.5 | NC(=O)c1ccc(N[C@@H]2CCCC[C@@H]2N)cc1Nc1cccc(-c2ccccc2)n1 (relative stereo) [Example 1.7, rel-4-{[(1R,2S)-2-aminocyclohexyl]amino}-2-[(6-phenylpyridin-2-yl)amino]benzamide] | –
< 1.5 | NC(=O)c1ccc(N[C@@H]2CCCC[C@@H]2N)cc1Nc1cccc(-n2cccc2)n1 (relative stereo) [Example 1.17, rel-4-{[(1R,2S)-2-aminocyclohexyl]amino}-2-{[6-(1H-pyrrol-1-yl)pyridin-2-yl]amino}benzamide] | –
1.5 to 15 | NC(=O)c1ccc(N[C@@H]2CCCC[C@@H]2N)cc1Nc1cccc(-c2ccc(F)c(F)c2)n1 (relative stereo) [Example 1.16, rel-4-{[(1R,2S)-2-aminocyclohexyl]amino}-2-{[6-(3,4-difluorophenyl)pyridin-2-yl]amino}benzamide] | IC50 ([1]; read-out: IC50): 1.6 nM
< 1.5 | COc1ccccc1-c1cccc(Nc2cc(N[C@@H]3CCCC[C@@H]3N)ccc2C(N)=O)n1 (relative stereo) [Example 1.12, rel-4-{[(1R,2S)-2-aminocyclohexyl]amino}-2-{[6-(2-methoxyphenyl)pyridin-2-yl]amino}benzamide] | –
1.5 to 15 | Cn1cc(-c2cccc(Nc3cc(N[C@@H]4CCCC[C@@H]4N)ccc3C(N)=O)n2)cn1 (relative stereo) [Example 1.10, rel-4-{[(1R,2S)-2-aminocyclohexyl]amino}-2-{[6-(1-methyl-1H-pyrazol-4-yl)pyridin-2-yl]amino}benzamide] | IC50 ([1]; read-out: IC50): 2 nM
< 1.5 | NC(=O)c1ccc(N[C@@H]2CCCC[C@@H]2N)cc1Nc1cccc(-c2ccncc2)n1 (relative stereo) [Example 1.8, rel-4-{[(1R,2S)-2-aminocyclohexyl]amino}-2-(2,4′-bipyridin-6-ylamino)benzamide] | –
< 1.5 | NC(=O)c1ccc(N[C@@H]2CCCC[C@@H]2N)cc1Nc1cccc(-c2cccc(F)c2)n1 (relative stereo) [Example 1.11, rel-4-{[(1R,2S)-2-aminocyclohexyl]amino}-2-{[6-(3-fluorophenyl)pyridin-2-yl]amino}benzamide] | –
15 to 50 | NC(=O)c1ccc(N[C@@H]2CCCC[C@@H]2N)cc1Nc1cccc(N2CCOCC2)n1 (relative stereo) [Example 1.5, rel-4-{[(1R,2S)-2-aminocyclohexyl]amino}-2-[(6-morpholin-4-ylpyridin-2-yl)amino]benzamide] | –
